# Patent US20040137426A1, “Gp41 peptides and methods based thereon for inhibiting HIV fusion to target cells” (priority 2002, published 2004)
# Experiments:
# [1] = target: HIV-1 IIIB gp41 (HIV-1 IIIB); test: cell-based or functional assay
# HIV-1 IIIB = type: cell-based; settings: lab-adapted HIV-1 IIIB
# Experimental: Both involved the culture of the virus with the peptide or its scrambled form for 1 hr at 37° C., 5% CO2 and then subsequent addition of target cells for 7 days. Inhibition was assessed using an enzyme-linked immunosorbent assay (ELISA) of viral core protein p24 antigen.
# HIV-1 = settings: qualitative comparison
# Experimental: Peptides were tested in vitro for inhibition of early steps in cell-free HIV-1 infection and direct cell-to-cell spread of virus using T-cell line-adapted and primary isolates and recombinant HIV-1 viruses pseudotyped for env using CCR5, CXCR4 or both coreceptors.
# Selected de novo designed peptides according to the invention (S291, N36E, W37Q and W371) and the new analogues of T20, T21 and DP219 were evaluated for inhibition of both cell-free HIV-1 infection and of direct cell-to-cell spread using a range of T-cell line-adapted and primary isolates and recombinant HIV-1 pseudotyped for env derived from patient isolates of different clades.
# [2] = tested on: HL2/3 cells expressing HIV-1IIIB Env fusing with MAGI-CCR5 cells; type: cell-based; settings: MAGI-CCR5 / HL2/3; read-out: IC50 cell fusion assay
# Experimental: A second panel of anti-HIV-1 peptides according to the invention was evaluated for using the MAGI-CCR5 antiviral assay and a gene reporter cell fusion assay. MAGI-CCR5 is an HIV-1 indicator cell line derived from HeLa cells that express CD4 and the HIV-1 coreceptors CCR5 and CXCR4. These cells contain a gene reporter cassette of β-galactosidase that is expressed from an HIV-1 LTR. Expression of the reporter gene is dependent on the production of HIV-1 tat that occurs following HIV-1 entry. The read-out for viral infectivity after two days of incubation is measurement of β-galactosidase expression detectable by chemoluminescence. The assay structure in the 96 well format as that used in the PBMC assay. The cell fusion assay uses the same indicator cell line (MAGI-CCR5), which is incubated with a HeLa cell based cell line HL2/3 that expresses HIV-1IIIB Env on its surface and contains Tat and Rev expression cassettes. When HL2/3 cells fuse with the MAGI-CCR5 cells, HIV-1 Tat is delivered into the indicator cells leading to activation of the β-galactosidase gene which is under the control of the HIV-1 LTR. The enzyme activity is read out in a similar fashion by chemoluminescence using the same assay structure as mentioned above. This assay is uniquely sensitive to entry inhibitors. […]
compound,measurement,setting,value
Recombinant DP178 (peptide),"ID50%, HIV-1IIIB infectivity",[1],0.05 µg/mL
same,"ID90, HIV-1IIIB infectivity",[1],0.09 µg/mL
same,"MIC, HIV-1IIIB infectivity",[1],0.009 µg/mL
CC[C@H](C)[C@H](NC(=O)[C@H](CCC(=O)O)NC(=O)[C@H](CCCNC(=N)N)NC(=O)[C@H](CCC(=O)O)NC(=O)[C@H](Cc1c[nH]c2ccccc12)NC(=O)[C@H](CCC(=O)O)NC(=O)[C@H](CCSC)NC(=O)[C@H](Cc1c[nH]c2ccccc12)NC(=O)[C@@H](NC(=O)[C@H](CCSC)NC(=O)[C@H](CC(N)=O)NC(=O)[C@H](CC(N)=O)NC(=O)[C@@H](N)Cc1c[nH]c2ccccc12)[C@@H](C)O)C(=O)N[C@@H](CC(=O)O)C(=O)N[C@@H](CC(N)=O)C(=O)N[C@@H](Cc1ccc(O)cc1)C(=O)N[C@H](C(=O)N[C@@H](CO)C(=O)N[C@@H](CC(C)C)C(=O)O)[C@@H](C)O [Peptide W19L],MIC HIV-1IIIB infectivity,HIV-1 IIIB,0.06 µg/mL
"CC[C@H](C)[C@H](NC(=O)[C@H](CC(C)C)NC(=O)[C@H](CO)NC(=O)[C@H](Cc1ccc(O)cc1)NC(=O)[C@@H](NC(=O)[C@H](CC(C)C)NC(=O)[C@H](CO)NC(=O)[C@@H](NC(=O)[C@H](Cc1ccc(O)cc1)NC(=O)[C@H](CC(N)=O)NC(=O)[C@H](CC(=O)O)NC(=O)[C@@H](NC(=O)[C@H](CCC(=O)O)NC(=O)[C@H](CCCNC(=N)N)NC(=O)[C@H](CCC(=O)O)NC(=O)[C@H](Cc1c[nH]c2ccccc12)NC(=O)[C@@H](N)CCC(=O)O)[C@@H](C)CC)[C@@H](C)O)[C@@H](C)CC)C(=O)N[C@@H](CCC(=O)O)C(=O)N[C@@H](CCC(=O)O)C(=O)N[C@@H](CO)C(=O)N[C@@H](CCC(N)=O)C(=O)N[C@@H](CC(N)=O)C(=O)N[C@@H](CCC(N)=O)C(=O)N[C@@H](CCC(N)=O)C(=O)N[C@@H](CCC(=O)O)C(=O)N[C@@H](CCCCN)C(=O)N[C@@H](CC(N)=O)C(=O)N[C@@H](CCC(=O)O)C(=O)N[C@@H](CCC(N)=O)C(=O)N[C@@H](CCC(=O)O)C(=O)O [Synthesised DP219, reference compound]",ID50% HIV-1IIIB infectivity,HIV-1 IIIB,6.00 µg/mL
same,ID90 HIV-1IIIB infectivity,HIV-1 IIIB,12.5 µg/mL
WNASWSNKSLEQIWNNMTWMEWEREIDNYTSLIYSLI [Peptide W37I],"activity compared with the new analogues of T-20, T-21 and DP219",HIV-1,broadly similar levels of activity
T20 (peptide),"IC50, cell fusion assay (MAGI-CCR5 cells with HL2/3 cells expressing HIV-1IIIB Env)",[1],30 nM
enfuvirtide,IC50,[2],~30 nM
